Measured values: the supplement of paper PMC10307832

Experiments:
Experiment in all cases: relative viability (nuclei count vs DMSO), 5 days (fraction); higher = more cells survive
[1] = compound: C1CC(C2=C(C1)C3=C(N2)C=CC(=C3)Cl)C(=O)N [Selisistat] + CC(=O)c1c(C)c2cnc(Nc3ccc(N4CCNCC4)cn3)nc2n(C2CCCC2)c1=O [Palbociclib] (partner 0.5 µM)
How it was run: (§1)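 Lung cancer cell lines in 1536-well plates got either a single drug or a fixed anchor-drug dose together with five library-drug doses (not always all listed) in √10 steps, by pin tool, on the day after seeding. Nuclei were counted after 5 days, and relative viability is the treated-to-vehicle ratio of nuclei counts. Values are medians of duplicate plates.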

[2] = compound: c1ccc2c(CCNc3ccc(Nc4ccncc4)cc3)c[nH]c2c1 [Serdemetan] + Cc1nc(Nc2ncc(C(=O)Nc3c(C)cccc3Cl)s2)cc(N2CCN(CCO)CC2)n1 [Dasatinib] (partner 0.075 µM)
How it was run: as §1

[3] = compound: c1ccc2c(CCNc3ccc(Nc4ccncc4)cc3)c[nH]c2c1 [Serdemetan] + Nc1nc2[nH]cc(CCc3ccc(C(=O)N[C@@H](CCC(=O)O)C(=O)O)cc3)c2c(=O)[nH]1 [Pemetrexed] (partner 0.2 µM)
How it was run: as §1

[4] = compound: c1ccc2c(CCNc3ccc(Nc4ccncc4)cc3)c[nH]c2c1 [Serdemetan] + COc1cc2c(Oc3ccc(NC(=O)C4(C(=O)Nc5ccc(F)cc5)CC4)cc3F)ccnc2cc1OCCCN1CCOCC1 [Foretinib] (partner 0.25 µM)
How it was run: as §1

UMC-11 showed a relative viability ([1]; first compound 0.4 µM) of 0.348, a relative viability ([1]; first compound 1.265 µM) of 0.34 and a relative viability ([1]; first compound 4 µM) of 0.299. For the same cell line, the relative viability ([1]; first compound 12.65 µM) was 0.319, the relative viability ([1]; first compound 40 µM) was 0.349 and the relative viability ([2]; first compound 0.04 µM) was 0.45. It also gave a relative viability ([2]; first compound 0.1265 µM) of 0.437, a relative viability ([2]; first compound 4 µM) of 0.351 and a relative viability ([3]; first compound 0.04 µM) of 0.776. For the same cell line, the relative viability ([3]; first compound 0.1265 µM) was 0.718, the relative viability ([3]; first compound 0.4 µM) was 0.689 and the relative viability ([3]; first compound 1.265 µM) was 0.666. For the same cell line, the relative viability ([3]; first compound 4 µM) was 0.586, the relative viability ([4]; first compound 0.04 µM) was 0.919 and the relative viability ([4]; first compound 0.1265 µM) was 1.02. The relative viability ([4]; first compound 4 µM) was 0.828.
